Laboratory results: ChEMBL document CHEMBL1201862, “PubChem BioAssay data set” (2004)
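Tested at 5 concentrations; 48 h exposure; 96-well plates; endpoints linearly interpolated, else capped at highest concentration. Abbreviation: GI50, concentration required for 50% inhibition of growth.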 The source made the active and inactive calls. Rule as the data show it: active = GI50 up to about 1.1 µM and inactive = higher.

Experiments:
Assay in all cases: DTP human tumour cell line panel, 48 h
[1] = test system: RXF 393
[2] = test system: HL-60
[3] = test system: CAKI-1
[4] = test system: SF-295
[5] = test system: SK-MEL-28
[6] = test system: TK-10
[7] = test system: U-251
[8] = test system: UACC-62
[9] = test system: EKVX
[10] = test system: A549
[11] = test system: OVCAR-5
[12] = test system: OVCAR-4
[13] = test system: NCI-H522
[14] = test system: SN12C
[15] = test system: SW-620
[16] = test system: SNB-75
[17] = test system: NCI/ADR-RES
[18] = test system: K562
[19] = test system: HT-29
[20] = test system: HCC 2998

Measured: GI50

O=C(O)/C(Cc1ccnc2ccccc12)=N\O
inactive: [1] > 100 µM | [2] > 100 µM | [3] > 100 µM | [4] > 100 µM | [5] > 100 µM | [6] > 100 µM | [7] > 100 µM | [8] > 100 µM | [9] > 100 µM | [10] > 100 µM | [11] > 100 µM | [12] > 100 µM | [13] > 100 µM | [14] > 100 µM | [15] > 100 µM | [16] > 100 µM | [17] > 100 µM | [18] > 100 µM | [19] > 100 µM

CC1Oc2c(c(O)cc3oc(=O)cc(-c4ccccc4)c23)C(=O)C1C (stereo not drawn)
inactive: [2] > 100 µM | [3] > 100 µM | [4] > 100 µM | [5] > 100 µM | [6] > 100 µM | [7] > 100 µM | [8] > 100 µM | [9] > 100 µM | [13] > 100 µM | [14] > 100 µM | [15] > 100 µM | [16] > 100 µM | [18] > 100 µM | [19] > 10 µM

Cc1cc(C)cc(Sc2c([N+](=O)[O-])ncn2C)c1
inactive: [3] 25.9 µM | [4] 21.9 µM | [5] 15.2 µM | [6] 23 µM | [7] 14.6 µM | [8] 15.5 µM | [9] 27.7 µM | [10] 26.6 µM | [11] 16.9 µM | [12] 15.4 µM | [20] 25 µM | [13] 6.64 µM | [14] 16.4 µM | [15] 14 µM | [16] 21.3 µM | [18] 11.2 µM | [19] 16.2 µM

Cc1ccc(S(=O)(=O)N(CC(=O)O)c2ccccc2)cc1
inactive: [1] > 100 µM | [2] > 100 µM | [3] > 100 µM | [4] > 100 µM | [5] > 100 µM | [6] > 100 µM | [7] > 100 µM | [8] > 100 µM | [9] > 100 µM | [10] > 100 µM | [11] > 100 µM | [12] > 100 µM | [20] > 100 µM | [13] > 100 µM | [14] > 100 µM | [15] > 100 µM | [16] > 100 µM | [18] > 100 µM | [19] > 100 µM

O=[N+]([O-])c1ccccc1C1SCc2nc3ccccc3n21 (stereo not drawn)
inactive: [1] > 100 µM | [2] 74.6 µM | [3] 78.3 µM | [4] 59.2 µM | [5] > 100 µM | [6] 79.1 µM | [7] 70.6 µM | [8] 54 µM | [9] 75 µM | [10] 52.4 µM | [12] > 100 µM | [13] > 100 µM | [14] 83.9 µM | [15] > 100 µM | [18] 45.5 µM | [19] > 100 µM

COC(=O)C1=C(C)N2CCOC2(C)C(C(=O)OC)C1c1ccc[nH]1 (stereo not drawn)
inactive: [1] > 100 µM | [2] > 100 µM | [3] > 100 µM | [4] > 100 µM | [5] > 100 µM | [6] > 100 µM | [8] > 100 µM | [9] > 100 µM | [10] > 100 µM | [12] > 100 µM | [20] > 100 µM | [15] > 100 µM | [16] 18.7 µM | [18] > 100 µM | [19] > 100 µM

O=C1OC(c2ccccc2)=N/C1=C\c1ccc(Oc2ccc(Cl)c(Cl)c2)cc1
inactive: [1] 25.8 µM | [2] 27.9 µM | [4] 76.4 µM | [5] > 10 µM | [6] > 100 µM | [7] 24.1 µM | [8] 26.2 µM | [9] 45.1 µM | [10] 43.1 µM | [11] > 100 µM | [20] 50 µM | [13] 30.1 µM | [14] 51.1 µM | [15] 37.7 µM | [18] 24.4 µM | [19] 69 µM

CN1CCN(c2cc(-c3cc4ccccc4o3)oc(=O)c2C#N)CC1
inactive: [1] 72.6 µM | [2] 43.9 µM | [3] 36.1 µM | [4] > 100 µM | [5] > 100 µM | [6] 59.4 µM | [7] > 100 µM | [9] 45.8 µM | [10] 70.8 µM | [11] 50.1 µM | [12] 93.5 µM | [20] > 100 µM | [14] 53.3 µM | [15] > 100 µM | [16] 80.4 µM | [18] 66.5 µM | [19] 78 µM
